Experimental data as given in US7632782B2, “Synergistically acting herbicidal mixtures” (BASF Aktiengesellschaft, priority 2002, dated 2009).

Assays:
Assay type in all cases: in vivo
Abutilon theophrasti = assay: Herbicidal action, post-emergence treatment, greenhouse
Description: (§1) The mixtures according to the invention were applied pre- and/or post-emergence (foliar treatment). The herbicidal compounds of component B) and, if desired, of component C) as well as the safener D) were applied in the formulation in which they are present as commercially available product (s).
(§2) The herbicidally active compounds of components A), B) and, if desired, C), and, if desired D), were applied in succession or jointly, in the latter case in some cases as a tank mix and in some cases as a readymix, in the form of emulsions, aqueous solutions or suspensions, the vehicle being water (300-400 l/ha). In the case of the field trials, application was effected with the aid of a mobile plot sprayer.
(§3) The test period extended over 3 to 8 weeks, and the stands were also observed at later points in time.
(§4) Damage by the herbicidal compositions was evaluated with reference to a scale of 0% to 100% in comparison with untreated control plots. 0 means no damage and 100 means complete destruction of the plants.
(§5) In these examples, the value […] at which only an additive effect of the individual active ingredients is to be expected was calculated by the method of S. R. Colby (Calculating synergistic and antagonistic responses of herbicide combinations, Weeds 15, 20 pp (1967)).
(§6) [formula] where • X=Percentage of the herbicidal action of component A) at an application rate of a; • Y=Percentage of the herbicidal action of component B), and, if desired, C), and, if desired, D) at an application rate of b, and, if desired, c, and, if desired, d; • E=expected herbicidal action of component A)+B), and, if desired C), and; if desired, D) at rates of application a+b, and, if desired, c and, if desired, d (in %).
(§7) If the value observed exceeds the value E calculated in accordance with Colby's formula, then synergism is present.

Avena fatua = assay: as above
Description: as §1, §2, §3, §4, §5, §6, §7

Pharbitis purpurea [1] = assay: as above
Description: as §1, §2, §3, §4, §5, §6, §7

Amaranthus retroflexus = assay: as above
Description: as §1, §2, §3, §4, §5, §6, §7

Bidens pilosa [2] = assay: as above; settings: Table 12, application rate 7.81 g/ha ai
Description: as §1, §2, §3, §4, §5, §6, §7

Galium aparine = assay: as above; settings: Table 11, application rate 7.81 g/ha ai
Description: as §1, §2, §3, §4, §5, §6, §7

Bidens pilosa [3] = assay: Herbicidal action, post-emergence treatment, field
Description: as §1, §2, §3, §4, §5, §6, §7

Brachiaria plantaginea = assay: Herbicidal action, post-emergence treatment, field; settings: Table 15, application rate 3.91 g/ha ai
Description: as §1, §2, §3, §4, §5, §6, §7

Commelina benghalensis = assay: Herbicidal action, post-emergence treatment, field; settings: Table 5, application rate 7.81 g/ha ai
Description: as §1, §2, §3, §4, §5, §6, §7

Pharbitis purpurea [4] = assay: Herbicidal action, post-emergence treatment, field; settings: Table 9, application rate 3.91 g/ha ai
Description: as §1, §2, §3, §4, §5, §6, §7

Polygonum persicaria = assay: Herbicidal action, post-emergence treatment, field; settings: Table 10, application rate 1.95 g/ha ai
Description: as §1, §2, §3, §4, §5, §6, §7

[5] = Table 4, application rate 0.98 g/ha ai
[6] = Table 3, application rate 1.95 g/ha ai
[7] = Table 4, application rate 1.95 g/ha ai
[8] = Table 6, application rate 3.91 g/ha ai
[9] = Table 8, application rate 1.95 g/ha ai
[10] = Table 14, application rate 3.91 g/ha ai
[11] = Table 3, application rate 3.91 g/ha ai

COc1cc(OC)nc(NC(=O)NS(=O)(=O)c2cc(NC=O)ccc2C(=O)N(C)C)n1 [Compound II, foramsulfuron, reference compound]
Abutilon theophrasti Damage [%] (Abutilon theophrasti; [5]): 30% | Avena fatua Damage [%] (Avena fatua; [6]): 50% | Avena fatua Damage [%] (Avena fatua; [5]): 30% | Pharbitis purpurea Damage [%] (Pharbitis purpurea [1]; [6]): 80%

Cc1c(C(=O)c2cnn(C)c2O)ccc(S(C)(=O)=O)c1C1=NOCC1 [Ia.29, 4-[2-methyl-3-(4,5-dihydroisoxazol-3-yl)-4-methylsulfonyl-benzoyl]-1-methyl-5-hydroxy-1H-pyrazole]
Abutilon theophrasti Damage [%] (Abutilon theophrasti; [7]): 40% | Abutilon theophrasti Damage [%] (Abutilon theophrasti; [8]): 80% | Abutilon theophrasti Damage [%] (Abutilon theophrasti; [9]): 40% | Abutilon theophrasti Damage [%] (Abutilon theophrasti; Table 11, application rate 7.81 g/ha ai): 95% | Abutilon theophrasti Damage [%] (Abutilon theophrasti; Table 12, application rate 7.81 g/ha ai): 95% | Abutilon theophrasti Damage [%] (Abutilon theophrasti; [10]): 80% | Amaranthus retroflexus Damage [%] (Amaranthus retroflexus; [8]): 60% | Amaranthus retroflexus Damage [%] (Amaranthus retroflexus; [9]): 40% | Amaranthus retroflexus Damage [%] (Amaranthus retroflexus; [10]): 60% | Avena fatua Damage [%] (Avena fatua; [11]): 50% | Avena fatua Damage [%] (Avena fatua; [7]): 25% | Bidens pilosa Damage [%] (Bidens pilosa [2]): 60% | Galium aparine Damage [%] (Galium aparine): 30% | Pharbitis purpurea Damage [%] (Pharbitis purpurea [1]; [11]): 70% | Bidens pilosa Damage [%] (Bidens pilosa [3]; Table 7, application rate 3.91 g/ha ai): 30% | Bidens pilosa Damage [%] (Bidens pilosa [3]; Table 13, application rate 7.81 g/ha ai): 60% | Brachiaria plantaginea Damage [%] (Brachiaria plantaginea): 80% | Commelina benghalensis Damage [%] (Commelina benghalensis): 40% | Pharbitis purpurea Damage [%] (Pharbitis purpurea [4]): 70% | Polygonum persicaria Damage [%] (Polygonum persicaria): 95%
